Source: patent publication US20230390352A1, “COMPOSITION COMPRISING SALVIA MILTIORRHIZA EXTRACT AS ACTIVE INGREDIENT FOR PREVENTION AND TREATMENT OF DEPRESSION IN MENOPAUSAL WOMEN” (UNDBIO.CO.,LTD, priority 2020, published 2023)

Columns and labels:
[1] = stability (content) of ingredients included in the Salvia miltiorrhiza extract on storage; assay type: physicochemical; settings: for Content (mg/g) of ingredient after 5 days of storage at room temperature of extract: 5 days at room temperature; for Content (mg/g) of ingredient in Salvia miltiorrhiza extract: before storage
Method: When the Salvia miltiorrhiza extract was stored at 95° C. for 0 hour, 1 hour, 2 hours, 3 hours, 4 hours and 6 hours, in order to confirm whether the stability of 5 types of ingredients of which the female hormone regulatory ability has been confirmed in Example embodiment 2-1 above was maintained, the ingredient contents of the stored samples were analyzed by time. In addition, when the Salvia miltiorrhiza extract was stored at room temperature for 1 day, 2 days, 3 days, 4 days and 5 days, the stability of the ingredients was confirmed through analysis of the contents of 5 types of ingredients included in the Salvia miltiorrhiza extract.
In addition, results of comparing the content of each ingredient included in the Salvia miltiorrhiza extract at various concentrations (0, 50, 70, and 100% ethanol) and the content after 5 days of storage at room temperature were shown together in Table 1 below.

[2] = system: ER (female hormone receptor); experiment: female hormone receptor (ER) expression in MCF-7 BUS cell line by real-time PCR; assay type: cell-based; settings: each ingredient 10 μg/mL, 72 hours
Method: Ingredients included in the Salvia miltiorrhiza extract obtained in Example embodiment 1 were confirmed, and in ingredients cryptotanshinone, danshensu, isotanshinone, salvianolic acid B, and tanshinone IIA, female hormone regulating ability was confirmed. An MCF-7 BUS cell line used in the experiment was received from Tufts University in the United States, and incubated in a CO2 incubator maintained at 37° C. and 5% CO2 by using a Dulbecco modified eagle medium (DMEM) (Gibco, USA) added with 10% fetal bovine serum (Gibco, USA) and 1% penicillin/streptomycin (Gibco, USA).
In the experiment, in order to evaluate the female hormone regulatory ability, the sensitivity to estrogen, one of the female hormones, was measured using the MCF-7 BUS cell line, and first, the MCF-7 BUS cell line was dispensed at 1×10^5 cells/well in a 60 mm culture dish, and then incubated in a CO2 incubator maintained at 37° C. and 5% CO2.
After incubation for 24 hours, each ingredient was treated at a concentration of 10 μg/mL, and 17β-Estradiol (E2) was treated with 10^−10 M as a positive control.
At this time, each primer was prepared by Takara, and ER was prepared with Forward primer: […] […] A CT value obtained through RT-PCR was converted into ΔCT, and this ΔCT value was analyzed through a change rate of an experimental group with respect to the control group, which was illustrated in FIG. 1.

[3] = system: natural aging-induced menopausal animal model; experiment: antidepressant efficacy verification experiment in natural aging-induced menopausal animal model (summary); assay type: in vivo; settings: antidepressant refractory animal model
From the text: Accordingly, the Salvia miltiorrhiza extract of the present disclosure may be administered to patients with resistance to benzodiazepine or imipramine, and may be used to treat depression that is resistant to the drug.

Row | SMILES | Content (mg/g) of ingredient after 5 days of storage at room temperature of extract ([1]; extract made with 0% EtOH) [mg/g] | Content (mg/g) of ingredient in Salvia miltiorrhiza extract ([1]; extract made with 0% EtOH) [mg/g] | Content (mg/g) of ingredient after 5 days of storage at room temperature of extract ([1]; extract made with 50% EtOH) [mg/g] | Content (mg/g) of ingredient in Salvia miltiorrhiza extract ([1]; extract made with 50% EtOH) [mg/g] | Content (mg/g) of ingredient after 5 days of storage at room temperature of extract ([1]; extract made with 70% EtOH) [mg/g] | Content (mg/g) of ingredient in Salvia miltiorrhiza extract ([1]; extract made with 70% EtOH) [mg/g] | Content (mg/g) of ingredient after 5 days of storage at room temperature of extract ([1]; extract made with 100% EtOH) [mg/g] | Content (mg/g) of ingredient in Salvia miltiorrhiza extract ([1]; extract made with 100% EtOH) [mg/g] | female hormone receptor regulating effect (ER mRNA change rate, FIG. 1) [2] | antidepressant effect in natural aging-induced menopausal animal model [3]
1 | O=C(O)[C@H](O)Cc1ccc(O)c(O)c1 [Danshensu] | 0.32 | 0.34 | 1.22 | 1.28 | 24.19 | 25.17 | 17.33 | 18.32 | most remarkable female hormone receptor regulating effect | –
2 | Cc1coc2c1C(=O)c1ccc3c(C)cccc3c1C2=O [Isotanshinone] | 0.99 | 2.22 | 5.62 | 12.31 | 12.11 | 14.23 | 10.33 | 12.22 | – | –
3 | O=C(/C=C/c1ccc(O)c2c1[C@H](C(=O)O[C@H](Cc1ccc(O)c(O)c1)C(=O)O)[C@@H](c1ccc(O)c(O)c1)O2)O[C@H](Cc1ccc(O)c(O)c1)C(=O)O [Salvianolic acid B] | 18.33 | 21.2 | 26.21 | 38.23 | 23.21 | 33.1 | 15.27 | 20.3 | – | –
4 | Cc1coc2c1C(=O)C(=O)c1c-2ccc2c1CCCC2(C)C [Tanshinone IIA] | 0.65 | 1.33 | 4.11 | 5.21 | 4.33 | 7.22 | 5.24 | 8.33 | – | –
5 | CN(C)CCCN1c2ccccc2CCc2ccccc21 [imipramine] | – | – | – | – | – | – | – | – | – | insufficient antidepressant effect
